Laboratory results as given in PMC3479105, “K-134, a Phosphodiesterase 3 Inhibitor, Prevents Brain Damage by Inhibiting Thrombus Formation in a Rat Cerebral Infarction Model” (PLoS ONE, 2012).
Like-named read-outs stand apart in the source and are kept apart here.

Experiments:
[1] = Pharmacokinetics of cilostazol and its active metabolites in rats; format: in vivo, rat; details: single oral cilostazol 300 mg/kg, non-fasting male SD rats, n = 3; parent and metabolites
Description: Pharmacokinetic variables (Cmax, AUC, Tmax and T1/2) were calculated from the plasma drug concentration-time curve. Cilostazol was orally administered to rats under non-fasting conditions at a single dose of 300 mg/kg to determine the concentration-time profile in serum (n = 3). Values are means (± SEM). […]

[2] = Electron spin resonance (ESR) radical scavenging; details: ESR experiments, data not shown
Text: In the photothrombotic cerebral infarction model, photoactivation of rose bengal by illumination with green light results in reactive oxygen intermediates (predominantly singlet oxygen and superoxide). […] Therefore, we concluded that the observed inhibitory effects of K-134 on photothrombosis in this model are relevant to its antiplatelet activity but not radical scavenging activity.

[3] = set-up: method as in PMID 10702882; details: human healthy male, single dose 100 mg of cilostazol, cited from earlier work
[4] = system: platelets; set-up: method as in earlier work; details: cited from earlier work
[5] = converted from µg/L, read-out: Cmax

Row | AUC0-24h [1] [µM·h] | Cmax [1] [µM] | T1/2 [1] [h] | Tmax [1] [h] | SMILES | scavenging activities against singlet oxygen and superoxide anion radical [2] | Cmax [3, 5] [µM] | AUC0–72 h ([3]; converted from µg/L·h) [µM·h] | AUC0–72 h [3] [µg·h/mL] | Cmax [3] [µg/mL] | antiplatelet activity, times more potent than cilostazol [4] [times] | antiplatelet activity, times less potent than cilostazol [4] [times]
1 | 18.3 | 1.4 | 6.8 | 3.2 | O=c1ccc2cc(OCCCCc3nnnn3C3CCCCC3)ccc2[nH]1 [OPC-13015] | did not show scavenging activities | 0.33 | 6.59 | ~2.423 | ~0.122 | 3 | 
2 | 127.3 | 9.1 | 6.1 |  | O=C1CCc2cc(OCCCCc3nnnn3C3CCC(O)CC3)ccc2N1 (stereo not drawn) [OPC-13213] |  | 0.17 | 1.60 | ~0.617 | ~0.064 |  | 3
